In patent US20260130395A1, “Water Dispersible Botanical Compositions” (Aquila Black Limited, priority 2021, published 2026):

Test: Stability of cannabinoid compounds and Vitamin E components in Beverage 1 (AB White) by LCMSMS
Type: physicochemical
Conditions: for Stability of Plant-Derived Cannabinoid Compounds in AB White, 8° C.: AB White stored at 8° C.; for Stability of Plant-Derived Cannabinoid Compounds in AB White, 21-25° C.: AB White stored at 21-25° C.

With `CCCCCc1cc(O)c(C/C=C(\C)CCC=C(C)C)c(O)c1` [CBG, cannabigerol] the “Stability of Plant-Derived Cannabinoid Compounds in AB White, 8° C.” value (from here on “Stability … 8° C.”) (0 days) was 4.87 µg/mL, the “Stability … 8° C.” value (1 days) was 4.74 µg/mL and the “Stability … 8° C.” value (2 days) was 4.91 µg/mL. For the same molecule, the “Stability … 8° C.” value (3 days) was 4.74 µg/mL, the “Stability … 8° C.” value (5 days) was 4.88 µg/mL and the “Stability … 8° C.” value (8 days) was 4.86 µg/mL. The “Stability … 8° C.” value (9 days) was 4.89 µg/mL, the “Stability … 8° C.” value (10 days) was 4.77 µg/mL and the “Stability … 8° C.” value (11 days) was 4.87 µg/mL. For the same molecule, the “Stability … 8° C.” value (12 days) was 4.87 µg/mL, the “Stability … 8° C.” value (15 days) was 4.81 µg/mL and the “Stability … 8° C.” value (16 days) was 4.84 µg/mL. The “Stability … 8° C.” value (17 days) was 4.78 µg/mL, the “Stability … 8° C.” value (18 days) was 4.81 µg/mL and the “Stability … 8° C.” value (19 days) was 4.83 µg/mL. The “Stability … 8° C.” value (22 days) was 4.75 µg/mL, the “Stability … 8° C.” value (23 days) was 4.89 µg/mL and the “Stability … 8° C.” value (24 days) was 4.83 µg/mL. For the same molecule, the “Stability … 8° C.” value (25 days) was 4.89 µg/mL, the “Stability … 8° C.” value (26 days) was 4.77 µg/mL and the “Stability … 8° C.” value (29 days) was 4.91 µg/mL. For the same molecule, the “Stability … 8° C.” value (30 days) was 4.79 µg/mL, the “Stability … 8° C.” value (60 days) was 4.68 µg/mL and the “Stability … 8° C.” value (90 days) was 4.66 µg/mL. For the same molecule, the “Stability … 8° C.” value (120 days) was 4.89 µg/mL, the “Stability … 8° C.” value (150 days) was 4.83 µg/mL and the “Stability … 8° C.” value (180 days) was 4.71 µg/mL. For the same molecule, the “Stability … 8° C.” value (210 days) was 4.73 µg/mL, the “Stability … 8° C.” value (240 days) was 4.69 µg/mL and the “Stability … 8° C.” value (270 days) was 4.72 µg/mL. The “Stability … 8° C.” value (300 days) was 4.74 µg/mL, the “Stability … 8° C.” value (330 days) was 4.69 µg/mL and the “Stability … 8° C.” value (360 days) was 4.66 µg/mL. For the same molecule, the “Stability … 8° C.” value (390 days) was 4.68 µg/mL, the “Stability … 8° C.” value (420 days) was 4.66 µg/mL and the “Stability … 8° C.” value (450 days) was 4.68 µg/mL. For the same molecule, the “Stability … 8° C.” value (480 days) was 4.64 µg/mL, the “Stability … 8° C.” value (510 days) was 4.49 µg/mL and the “Stability … 8° C.” value (540 days) was 4.53 µg/mL. For the same molecule, the “Stability … 8° C.” value (570 days) was 4.46 µg/mL, the “Stability of Plant-Derived Cannabinoid Compounds in AB White, 21-25° C.” value (shortened to “Stability … 21-25° C.”) (0 days) was 4.87 µg/mL and the “Stability … 21-25° C.” value (1 days) was 4.73 µg/mL. The “Stability … 21-25° C.” value (2 days) was 4.72 µg/mL, the “Stability … 21-25° C.” value (3 days) was 4.75 µg/mL and the “Stability … 21-25° C.” value (5 days) was 4.89 µg/mL. For the same molecule, the “Stability … 21-25° C.” value (8 days) was 4.90 µg/mL, the “Stability … 21-25° C.” value (9 days) was 4.79 µg/mL and the “Stability … 21-25° C.” value (10 days) was 4.68 µg/mL. The “Stability … 21-25° C.” value (11 days) was 4.74 µg/mL, the “Stability … 21-25° C.” value (12 days) was 4.88 µg/mL and the “Stability … 21-25° C.” value (15 days) was 4.87 µg/mL. For the same molecule, the “Stability … 21-25° C.” value (16 days) was 4.80 µg/mL, the “Stability … 21-25° C.” value (17 days) was 4.80 µg/mL and the “Stability … 21-25° C.” value (18 days) was 4.72 µg/mL. The “Stability … 21-25° C.” value (19 days) was 4.68 µg/mL, the “Stability … 21-25° C.” value (22 days) was 4.68 µg/mL and the “Stability … 21-25° C.” value (23 days) was 4.85 µg/mL. The “Stability … 21-25° C.” value (24 days) was 4.80 µg/mL, the “Stability … 21-25° C.” value (25 days) was 4.86 µg/mL and the “Stability … 21-25° C.” value (26 days) was 4.78 µg/mL. For the same molecule, the “Stability … 21-25° C.” value (29 days) was 4.76 µg/mL, the “Stability … 21-25° C.” value (30 days) was 4.73 µg/mL and the “Stability … 21-25° C.” value (60 days) was 4.83 µg/mL. For the same molecule, the “Stability … 21-25° C.” value (90 days) was 4.65 µg/mL, the “Stability … 21-25° C.” value (120 days) was 4.59 µg/mL and the “Stability … 21-25° C.” value (150 days) was 4.63 µg/mL. The “Stability … 21-25° C.” value (180 days) was 4.79 µg/mL, the “Stability … 21-25° C.” value (210 days) was 4.75 µg/mL and the “Stability … 21-25° C.” value (240 days) was 4.79 µg/mL. The “Stability … 21-25° C.” value (270 days) was 4.62 µg/mL, the “Stability … 21-25° C.” value (300 days) was 4.67 µg/mL and the “Stability … 21-25° C.” value (330 days) was 4.71 µg/mL. For the same molecule, the “Stability … 21-25° C.” value (360 days) was 4.69 µg/mL, the “Stability … 21-25° C.” value (390 days) was 4.70 µg/mL and the “Stability … 21-25° C.” value (420 days) was 4.72 µg/mL. The “Stability … 21-25° C.” value (450 days) was 4.73 µg/mL, the “Stability … 21-25° C.” value (480 days) was 4.46 µg/mL and the “Stability … 21-25° C.” value (510 days) was 4.51 µg/mL. For the same molecule, the “Stability … 21-25° C.” value (540 days) was 4.48 µg/mL and the “Stability … 21-25° C.” value (570 days) was 4.47 µg/mL.
